Measured values taken from patent US20170304336A1, “COMBINATION” (priority 2014, published 2017).

Columns and labels:
[1] = system: experimental rat hypercholesterolemia model; test: Lipid spectrum of blood in experimental rat hypercholesterolemia model; type: in vivo, male rats of Wistar line
Description: The animals used were male rats of Wistar line. […] The proposed model using rats as the experimental animals is a reproducible standard model for evaluation of hypocholesterolemic effect.
(§1) Evaluation of hypocholesterolemic efficacy and safety of pharmaceutical combination was performed in vivo in experimental rat hypercholesterolemia model.
(§2) For 90 days the studied animals received hypercholesterol diet for pathology induction. The diet included Cholesterol+Cholic acid+Overheated fats (deep fat).
For 90 days the animals received the said ration ad libitum (30 g feed per animal). Development of hypercholesterolemia in animals was evaluated based on changes in lipid spectrum parameters on Day 30 of the study.
(§3) Drugs were introduced intragastrically with an esophageal bougie daily on Day 31-90 of the study at the same time of day.
Biochemical parameters and activity of blood serum enzymes (total cholesterol (CHS), LDL-CHS, HDL-CHS, triglycerides.
1.0-1.84 ml blood samples for the study of biochemical parameters were taken from tail vein of rats. Blood samples were taken from the animals after 14-15-hour's fasting at same time of day (9.00-11.00). For biochemical parameters tests a Biochemical Analyzer A-25 (Biosystems, Spain) was used. […]

[2] = system: experimental rat hypercholesterolemia model; test: Biochemical blood analysis (drug toxicity parameters) in rat hypercholesterolemia model; type: in vivo, male rats of Wistar line
Description: as §1, §2, §3
Biochemical parameters and activity of serum enzymes (aspartate- and alanine aminotransferase, creatine phosphokinase, urea, serum amylase, total bilirubin, direct bilirubin, indirect bilirubin, serum glucose, cations K^+, Na^+).
1.0-1.84 ml blood samples for the study of biochemical parameters were taken from tail vein of rats. Blood samples were taken from the animals after 14-15-hour's fasting at same time of day (9.00-11.00). For biochemical parameters tests a Biochemical Analyzer A-25 (Biosystems, Spain) was used.
Vol. 4. pp. 1794-1798; Pearlman F C and Lee R T Y. Clin Chem 1974, 20, 447-453; Zoppi F et al, Peracino A., Fenili D., Marcovina S. and Ramella C. Giorn It Chim Cl. […] C. et al Clin Chem. 1974. Vol. 20. pp. 470-475; and in Meiattini F., et al, Clin Chem. 1978. Vol. 24. pp. 2161-2165 (total cholesterol); Warnick G R et al. Clin Chem 2001, 47, 1579-96 (HDL/LDL); Bucolo G and David H. Clin Chem. 1973.-Vol. 19. pp. 476-482; and in Fossati P. and, Prencipe L., Clin Chem. 1982. Vol. 28. pp. 2077-2080 (triglycerides); Trinder P. Ann Clin Biochem. 1969. Vol. 6. pp. 24-27).

[3] = Mass coefficients of organs (pancreas, liver, kidneys) of rats; type: in vivo, male rats of Wistar line; details: M ± m; for weight coefficient, Kidneys / weight coefficient, Liver: in %
Description: To calculate mass coefficients the pancreas, liver and kidneys of the animals were extracted. The organs were weighed and the mass coefficients were calculated by the following formula:
Mass coefficient=(organ weight/animal body weight)×100%

[4] = Dynamics of body weight of rabbits (Schemes A and B); type: in vivo, male rabbits of Californian breed; details: for Body weight: Scheme A, M ± SEM
Description: The animals used in this experiment were involved reproductive male rabbits of Californian breed. 144 rabbits were used. The weight of the animals at the beginning of the trial ranged from 2.5 to 3 kg; the animals were 8 weeks old. Before the study the laboratory animals were contained for 27 and for 37 days in the separate coops for adaptation. During this period, clinical condition of animals was controlled every day by visual inspection. The criteria of the inclusion of animals in the experiment were health and body weight.
The introduction of drugs under two schemes was used to determine the mechanism of action of the studied drugs and the impact on the different stages of atherosclerosis.
Cholesterol administered daily in an oil solution at 0.3 g/kg of animal body weight, one time, 4 hours after drug administration. Cholesterol was dissolved in hot sunflower oil and administered to the animals through noninvasive probe into the stomach. The duration of administration amounted cholesterol from 1 to 90 days in subgroup A and 1 to 120 days in subgroup B. 2. After 30 days from the initiation of administration of cholesterol vitamin D3 (cholecalciferol) in a dose of 0.256 ml/kg was added to the diet of animals to enhance aortic lipidosis. Cholecalciferol was administered intragastrically via a probe from 31 till 60 days (Scheme A and B). […] In order to gain atherosclerotic lesions in aorta and atherosclerosis induction time reduction the animals were administered a dose of epinephrineequal to 0.04 mg/kg intravenously since 31 till 60 every five days (Scheme A and B).
Animal body weight was measured in accordance with standard procedures prior to the study, then—weekly (for calculating the volume of administration of the test compound and the reference drug) and immediately before euthanasia (on days 60 and 120)—to calculate the weight gain.
The administration was carried out intragastrically in accordance with standard procedures using atraumatic probe according to two treatment regimens every day at the same time.

[5] = Mass coefficients of liver and pancreas of rabbits; type: in vivo, male rabbits of Californian breed; details: for pancreatic mass coefficients relative to the control group: rosuvastatin 40 mg, AGA 100 mg
[6] = Day 30 of treatment (Day 60 of study), dose 10 mg
[7] = Day 30 of treatment (Day 60 of study), dose 20 mg
[8] = Day 60 of treatment (Day 90 of study), dose 10 mg
[9] = Day 60 of treatment (Day 90 of study), dose 20 mg
[10] = blood, Day 60 of the treatment (Day 90 of the study), RV + AGA 10 + 108 mg, RV 10 mg, AGA 108 mg
[11] = RV + AGA 10 + 108 mg, RV 10 mg, AGA 108 mg
[12] = Day 30 of treatment (Day 60 of study), dose 108 mg
[13] = Day 60 of treatment (Day 90 of study), dose 108 mg
[14] = blood, Day 60 of the treatment (Day 90 of the study), PV + GtA 40 + 108 mg, PV 20 mg, GtA 108 mg
[15] = PV + GtA 40 + 108 mg, PV 40 mg, GtA 108 mg
[16] = Day 30 of treatment (Day 60 of study), dose 80 mg
[17] = Day 60 of treatment (Day 90 of study), dose 80 mg
[18] = blood, Day 60 of the treatment (Day 90 of the study), FV + GA 80 + 90 mg, FV 80 mg, GA 90 mg
[19] = FV + GA 80 + 90 mg, FV 80 mg, GA 90 mg

SMILES: CC(C)c1nc(N(C)S(C)(=O)=O)nc(-c2ccc(F)cc2)c1/C=C/[C@@H](O)C[C@@H](O)CC(=O)O [RV, (3R,5S,6E)-7-[4-(4-fluorophenyl)-2-(N-methylmethanesulfonamido)-6-(propan-2-yl)pyrimidin-5-yl]-3,5-dihydroxyhept-6-enoic acid]
- HDL CHS [1, 6]: 0.81 ± 0.05 mmol/L
- LDL CHS [1, 6]: 3.23 ± 0.21 mmol/L
- TG [1, 6]: 1.21 ± 0.10 mmol/L
- Total CHS [1, 6]: 4.0 ± 0.2 mmol/L
- HDL CHS [1, 7]: 0.9 ± 0.03 mmol/L
- LDL CHS [1, 7]: 3.00 ± 0.10 mmol/L
- TG [1, 7]: 1.27 ± 0.03 mmol/L
- Total CHS [1, 7]: 3.6 ± 0.1 mmol/L
- HDL CHS [1, 8]: 0.81 ± 0.05 mmol/L
- LDL CHS [1, 8]: 2.90 ± 0.21 mmol/L
- TG [1, 8]: 1.21 ± 0.10 mmol/L
- Total CHS [1, 8]: 3.7 ± 0.2 mmol/L
- HDL CHS [1, 9]: 0.91 ± 0.03 mmol/L
- LDL CHS [1, 9]: 2.72 ± 0.20 mmol/L
- TG [1, 9]: 1.29 ± 0.03 mmol/L
- Total CHS [1, 9]: 3.3 ± 0.1 mmol/L
- ALT [2, 6]: 179 U/l
- AST [2, 6]: 182 U/l
- Amylase [2, 6]: 641 U/l
- Bilirubin direct [2, 6]: 2.7 mg/dL
- Bilirubin indirect [2, 6]: 2.1 mg/dL
- Bilirubin total [2, 6]: 4.6 mg/dL
- CPK [2, 6]: 702 U/l
- Glucose [2, 6]: 158 mg/dL
- Potassium [2, 6]: 4.3 mM
- Sodium [2, 6]: 128 mmol
- Urea [2, 6]: 7.2 mmol/L
- ALT [2, 10]: 139 U/l
- AST [2, 10]: 190 U/l
- Amylase [2, 10]: 584 U/l
- Bilirubin direct [2, 10]: 2.9 mg/dL
- Bilirubin indirect [2, 10]: 1.7 mg/dL
- Bilirubin total [2, 10]: 4.8 mg/dL
- CPK [2, 10]: 597 U/l
- Glucose [2, 10]: 130 mg/dL
- Potassium [2, 10]: 2.2 mM
- Sodium [2, 10]: 130 mmol
- Urea [2, 10]: 6.4 mmol/L
- weight coefficient, Pancreas [3, 11]: 0.35 ± 0.04
- weight coefficient, Kidneys [3, 11]: 0.75 ± 0.03
- weight coefficient, Liver [3, 11]: 4.42 ± 0.11
- Body weight ([4]; Day 0 (Before the study), dose group 20 mg): 2874 ± 165 g
- Body weight ([4]; Day 0 (Before the study), dose group 40 mg): 2787 ± 141 g
- Body weight ([4]; Day 28 (in the setting of pathology without treatment), dose group 20 mg): 3350 ± 157 g
- Body weight ([4]; Day 28 (in the setting of pathology without treatment), dose group 40 mg): 3428 ± 146 g
- Body weight ([4]; Day 90 (in the setting of pathology with treatment), dose 20 mg): 4340 ± 53 g
- Body weight ([4]; Day 90 (in the setting of pathology with treatment), dose 40 mg): 4348 ± 66 g
- Body weight, M ± SEM, Day 120 (in the setting of pathology with treatment) ([4]; Scheme B, dose 20 mg): 4699 ± 131^1 g
- Body weight, M ± SEM, Day 0 (Before the study) ([4]; Scheme B, dose 20 mg, baseline): 2665 ± 85 g
- Body weight, M ± SEM, Day 56 (in the setting of pathology without treatment) ([4]; Scheme B, dose 20 mg, before treatment): 3479 ± 106 g
- Mass ratios, M ± SEM, Liver ([5]; Scheme A, dose 20 mg): 3.8 ± 0.2
- Mass ratios, M ± SEM, Pancreas ([5]; Scheme A, dose 20 mg): 0.07 ± 0.006
- Mass ratios, M ± SEM, Liver ([5]; Scheme A, dose 40 mg): 4.0 ± 0.1
- Mass ratios, M ± SEM, Pancreas ([5]; Scheme A, dose 40 mg): 0.09 ± 0.004
- pancreatic mass coefficients relative to the control group ([5]; Scheme A): significant increase
- Mass ratios, M ± SEM, Liver ([5]; Scheme B, dose 20 mg): 3.8 ± 0.2
- Mass ratios, M ± SEM, Pancreas ([5]; Scheme B, dose 20 mg): 0.09 ± 0.004^12
- pancreatic mass coefficients relative to the control group ([5]; Scheme B): statistically significant increase

SMILES: CC1(C)[C@@H](O)CC[C@]2(C)[C@H]3C(=O)C=C4[C@@H]5C[C@@](C)(C(=O)O)CC[C@]5(C)CC[C@@]4(C)[C@]3(C)CC[C@@H]12 [GtA, (2S,4aS,6aS,6bR,8aR,10S,12aS,12bR,14bR)-10-hydroxy-2,4a,6a,6b,9,9,12a-heptamethyl-13-oxo-1,2,3,4,4a,5,6,6a,6b,7,8,8a,9,10,11,12,12a,12b,13,14b-icosahydropicene-2-carboxylic acid]
- HDL CHS [1, 12]: 0.51 ± 0.04 mmol/L
- LDL CHS [1, 12]: 4.40 ± 0.4 mmol/L
- TG [1, 12]: 1.6 ± 0.11 mmol/L
- Total CHS [1, 12]: 4.9 ± 0.5 mmol/L
- HDL CHS [1, 13]: 0.61 ± 0.03 mmol/L
- LDL CHS [1, 13]: 4.24 ± 0.4 mmol/L
- TG [1, 13]: 1.5 ± 0.11 mmol/L
- Total CHS [1, 13]: 4.5 ± 0.5 mmol/L
- ALT [2, 12]: 97 U/l
- AST [2, 12]: 130 U/l
- Amylase [2, 12]: 622 U/l
- Bilirubin direct [2, 12]: 1.1 mg/dL
- Bilirubin indirect [2, 12]: 1.7 mg/dL
- Bilirubin total [2, 12]: 3.2 mg/dL
- CPK [2, 12]: 390 U/l
- Glucose [2, 12]: 119 mg/dL
- Potassium [2, 12]: 2.8 mM
- Urea [2, 12]: 6.5 mmol/L
- ALT [2, 14]: 101 U/l
- AST [2, 14]: 120 U/l
- Amylase [2, 14]: 599 U/l
- Bilirubin direct [2, 14]: 1.2 mg/dL
- Bilirubin indirect [2, 14]: 1.8 mg/dL
- Bilirubin total [2, 14]: 2.7 mg/dL
- CPK [2, 14]: 300 U/l
- Glucose [2, 14]: 112 mg/dL
- Potassium [2, 14]: 3.1 mM
- Urea [2, 14]: 5.5 mmol/L
- weight coefficient, Pancreas [3, 15]: 0.21 ± 0.01^2
- weight coefficient, Kidneys [3, 15]: 0.80 ± 0.02
- weight coefficient, Liver [3, 15]: 4.43 ± 0.10

SMILES: CC(C)n1c(/C=C/[C@@H](O)C[C@@H](O)CC(=O)O)c(-c2ccc(F)cc2)c2ccccc21 (stereo in doubt) [FV, (3R,5S,6E)-7-[3-(4-fluorophenyl)-1-(propan-2-yl)-1H-indol-2-yl]-3,5-dihydroxyhept-6-enoic acid]
- HDL CHS [1, 16]: 0.61 ± 0.04 mmol/L
- LDL CHS [1, 16]: 3.31 ± 0.44 mmol/L
- TG [1, 16]: 1.39 ± 0.14 mmol/L
- Total CHS [1, 16]: 5.0 ± 0.3 mmol/L
- HDL CHS [1, 17]: 0.72 ± 0.03 mmol/L
- LDL CHS [1, 17]: 3.52 ± 0.44 mmol/L
- TG [1, 17]: 1.45 ± 0.14 mmol/L
- Total CHS [1, 17]: 4.9 ± 0.4 mmol/L
- ALT [2, 16]: 170 U/l
- AST [2, 16]: 191 U/l
- Amylase [2, 16]: 637 U/l
- Bilirubin direct [2, 16]: 2.6 mg/dL
- Bilirubin indirect [2, 16]: 2.2 mg/dL
- Bilirubin total [2, 16]: 4.0 mg/dL
- CPK [2, 16]: 690 U/l
- Glucose [2, 16]: 150 mg/dL
- Potassium [2, 16]: 3 mM
- Sodium [2, 16]: 125 mmol
- Urea [2, 16]: 7.3 mmol/L
- ALT [2, 18]: 148 U/l
- AST [2, 18]: 200 U/l
- Amylase [2, 18]: 590 U/l
- Bilirubin direct [2, 18]: 1.4 mg/dL
- Bilirubin indirect [2, 18]: 1.6 mg/dL
- Bilirubin total [2, 18]: 4.2 mg/dL
- CPK [2, 18]: 680 U/l
- Glucose [2, 18]: 127 mg/dL
- Potassium [2, 18]: 2.3 mM
- Sodium [2, 18]: 124 mmol
- Urea [2, 18]: 6.3 mmol/L
- weight coefficient, Pancreas [3, 19]: 0.37 ± 0.03^1
- weight coefficient, Kidneys [3, 19]: 0.75 ± 0.03
- weight coefficient, Liver [3, 19]: 4.41 ± 0.12
